Columns and labels:
Zea mays (ZEAMX) = test: Cold stress test on crop plants, spray application in greenhouse, visual damage rating; type: in vivo; conditions: mean of three results
Experimental: Seeds of monocotyledonous and dicotyledonous crop plants were placed in sandy loam in wood-fiber pots, covered with soil and cultivated in a greenhouse under good growth conditions. The test plants were treated at the early leaf stage (BBCH10-BBCH13). To ensure uniform water supply before commencement of stress, the potted plants were supplied with the maximum amount of water immediately beforehand by dam irrigation and, after application, transferred in plastic inserts in order to prevent subsequent, excessively rapid drying. The inventive compounds, formulated in the form of wettable powders (WP), wettable granules (WG), suspension concentrates (SC) or emulsion concentrates (EC), were sprayed onto the green parts of the plants as an aqueous suspension at an equivalent water application rate of 600 l/ha with addition of 0.2% wetting agent (agrotin). Substance application was followed immediately by stress treatment of the plants (cold or drought stress). For cold stress treatment, the plants were kept under the following controlled conditions: “day”: 12 hours with illumination at 8° C. “night”: 12 hours without illumination at 1° C. The duration of the respective stress phases was guided mainly by the state of the untreated, stressed control plants and thus varies from crop to crop. It was ended (by re-irrigating or transfer to a greenhouse with good growth conditions) as soon as irreversible damage is observed on the untreated, stressed control plants. In the case of dicotyledonous crops, for example oilseed rape and soya, the duration of the drought stress phase was between 3 and 5 days, in the case of monocotyledonous crops, for example wheat, barley or corn, between 6 and 10 days. The duration of the cold stress phase varied between 12 and 14 days. The end of the stress phase was followed by an approx. 5-7-day recovery phase, during which the plants were once again kept under good growth conditions in a greenhouse. […] The intensity of damage was first assessed as a percentage (100%=plants have died, 0%=like control plants). […]

Brassica napus (BRSNS) = test: Drought stress test on crop plants, spray application in greenhouse, visual damage rating; type: in vivo; conditions: mean of three results
Experimental: Seeds of monocotyledonous and dicotyledonous crop plants were placed in sandy loam in wood-fiber pots, covered with soil and cultivated in a greenhouse under good growth conditions. The test plants were treated at the early leaf stage (BBCH10-BBCH13). To ensure uniform water supply before commencement of stress, the potted plants were supplied with the maximum amount of water immediately beforehand by dam irrigation and, after application, transferred in plastic inserts in order to prevent subsequent, excessively rapid drying. The inventive compounds, formulated in the form of wettable powders (WP), wettable granules (WG), suspension concentrates (SC) or emulsion concentrates (EC), were sprayed onto the green parts of the plants as an aqueous suspension at an equivalent water application rate of 600 l/ha with addition of 0.2% wetting agent (agrotin). Substance application was followed immediately by stress treatment of the plants (cold or drought stress). For cold stress treatment, the plants were kept under the following controlled conditions: Drought stress was induced by gradual drying out under the following conditions: “day”: 14 hours with illumination at 26° C. “night”: 10 hours without illumination at 18° C. The duration of the respective stress phases was guided mainly by the state of the untreated, stressed control plants and thus varies from crop to crop. It was ended (by re-irrigating or transfer to a greenhouse with good growth conditions) as soon as irreversible damage is observed on the untreated, stressed control plants. In the case of dicotyledonous crops, for example oilseed rape and soya, the duration of the drought stress phase was between 3 and 5 days, in the case of monocotyledonous crops, for example wheat, barley or corn, between 6 and 10 days. The duration of the cold stress phase varied between 12 and 14 days. The end of the stress phase was followed by an approx. 5-7-day recovery phase, during which the plants were once again kept under good growth conditions in a greenhouse. In order to rule out any influence of the effects observed by any fungicidal action of the test compounds, it was additionally ensured that the tests proceed without fungal infection and without infection pressure. After the recovery phase had ended, the intensities of damage were rated visually compared to untreated, unstressed controls of the same age (in the case of drought stress) or the same growth stage (in the case of cold stress). The intensity of damage was first assessed as a percentage (100%=plants have died, 0%=like control plants). These values were then used to calculate the efficacy of the test compounds (=percentage reduction in the intensity of damage as a result of substance application) by the following formula: [formula] EF: efficacy (%) DVus: damage value of the untreated, stressed control DVts: damage value of the plants treated with test compound The tables below list mean values in each case from three results of the same test. Effects of selected compounds of the formula (I) under drought stress: BRSNS=Brassica napus

Compound	EF (ZEAMX), efficacy = percentage reduction in the intensity of damage (Zea mays (ZEAMX); 5 g/ha) [%]	EF (BRSNS), efficacy = percentage reduction in the intensity of damage (Brassica napus (BRSNS); 25 g/ha) [%]	EF (ZEAMX), efficacy = percentage reduction in the intensity of damage (Zea mays (ZEAMX); 25 g/ha) [%]	EF (BRSNS), efficacy = percentage reduction in the intensity of damage (Brassica napus (BRSNS); 50 g/ha) [%]
NC(=O)c1cccc2[nH]c(C(F)(F)C(F)(F)F)nc12 [1-2, 2-(pentafluoroethyl)-1H-benzimidazole-4-carboxamide]	>5	>5		
NC(=O)c1cccc2[nH]c(C(F)(F)C(F)(F)C(F)(F)F)nc12 [1-17]			>5	>5

— patent US20110218103A1, “Fluoroalkyl-substituted 2-amidobenzimidazoles” (BAYER CROPSCIENCE AG, priority 2010, published 2011)
